The target of series [1] is T1, Recombinant human PI3Kγ (full length human PI3K p110γ) (Homo sapiens, UniProt P48736).
T1 construct: full length human PI3K p110γ fused with a His6-tag at the C-terminus; His6 (C); purchased ALEXIS BIOCHEMICALS #201-055-C010; host or cells: S. frugiperda 9 insect cells
The experiment in a line: Kinase assay of PI3Kγ (solid-phase lipid kinase assay). The note with it: Table 1, isozyme not given; read-out: in vitro. It counts as biochemical. The text has this: [Determination of IC50 Values of Compounds in Kinase Assay of PI3Kγ]
Chemicals and Assay Materials
LABORATORIES (Toronto, Canada). Recombinant human PI3Kγ (full length human PI3K p110γ fused with a His6-tag at the C-terminus expressed in S. frugiperda 9 insect cells) was obtained from ALEXIS BIOCHEMICALS (#201-055-C010; San Diego, Calif.). […] BIOTECH (Buckinghamshire, UK) and ROCHE DIAGNOSTICS (Mannheim, Germany), respectively. Scintillation cocktails and MicroScint PS™ were purchased from PACKARD (Meriden, Conn.). Maxisorp™ plates were purchased from NALGE NUNC INTERNATIONAL K.K. (Tokyo, Japan). All other chemicals not further specified were from WAKO PURE CHEMICALS (Osaka, Japan).
Solid-Phase Lipid Kinase Assay
The plates were subsequently air-dried by incubation for at least 2 hours in a fume hood. The reaction was set up by mixing 25 μl/well of assay buffer 2× (100 mM MOPSO/NaOH, 0.2 M NaCl, pH 7.0, 8 mM MgCl2, 2 mg/ml BSA (fatty acid-free)) and 50 ng/well PI3Kγ in the lipid pre-coated plate and 10× test compounds were added in 2% DMSO. The reaction was started by adding 20 μl/well of ATP mix (final 10 μM ATP; 0.05 μCi/well [γ^33P]ATP). After incubation at RT for 2 hours, the reaction was terminated by adding 50 μl/well stop solution (50 mM EDTA, pH 8.0). The plate was then washed twice with Tris-buffered saline (TBS, pH 7.4). MicroScint PS™ (PACKARD) scintillation mix was added at 100 μl/well, and radioactivity was counted by using a TopCount™ (PACKARD) scintillation counter.
The inhibition percent at each concentration of compound was calculated, and IC50 values were determined from the inhibition of curve.

Where only a bound is given, the exact number is not on record here.

T1 sequence (P48736 whole entry, the tested form may be a part): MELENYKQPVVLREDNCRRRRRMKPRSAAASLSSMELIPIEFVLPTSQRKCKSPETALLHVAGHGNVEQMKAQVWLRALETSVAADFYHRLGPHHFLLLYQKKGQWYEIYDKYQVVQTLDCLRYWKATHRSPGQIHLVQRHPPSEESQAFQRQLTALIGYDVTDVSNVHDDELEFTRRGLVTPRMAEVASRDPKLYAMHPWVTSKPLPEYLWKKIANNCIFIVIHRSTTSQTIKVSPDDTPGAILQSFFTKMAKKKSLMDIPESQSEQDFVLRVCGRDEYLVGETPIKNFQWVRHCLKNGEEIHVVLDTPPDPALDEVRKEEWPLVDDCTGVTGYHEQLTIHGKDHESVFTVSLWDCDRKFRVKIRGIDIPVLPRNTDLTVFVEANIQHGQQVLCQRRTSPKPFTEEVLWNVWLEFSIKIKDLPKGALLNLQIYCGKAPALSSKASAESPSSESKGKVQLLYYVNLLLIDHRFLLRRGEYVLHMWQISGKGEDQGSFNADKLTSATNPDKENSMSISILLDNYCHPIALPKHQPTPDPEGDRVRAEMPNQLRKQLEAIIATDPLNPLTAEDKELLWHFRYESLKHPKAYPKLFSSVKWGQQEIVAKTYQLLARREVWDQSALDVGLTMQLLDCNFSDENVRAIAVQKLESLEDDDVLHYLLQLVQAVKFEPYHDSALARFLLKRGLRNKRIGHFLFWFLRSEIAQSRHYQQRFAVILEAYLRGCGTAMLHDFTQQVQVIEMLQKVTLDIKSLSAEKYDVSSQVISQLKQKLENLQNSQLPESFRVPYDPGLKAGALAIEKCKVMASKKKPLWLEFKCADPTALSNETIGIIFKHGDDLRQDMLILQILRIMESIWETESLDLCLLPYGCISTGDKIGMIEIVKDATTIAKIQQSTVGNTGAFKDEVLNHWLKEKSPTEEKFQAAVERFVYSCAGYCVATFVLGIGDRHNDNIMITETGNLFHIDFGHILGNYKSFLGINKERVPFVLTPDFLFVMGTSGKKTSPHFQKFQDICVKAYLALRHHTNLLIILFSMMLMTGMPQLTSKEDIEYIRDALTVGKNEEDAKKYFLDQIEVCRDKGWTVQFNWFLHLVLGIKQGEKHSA

For orientation: melting point means the temperature, or range, at which the solid turns liquid. On to `O/C(=C\C1=Nc2ccc(O)cc2C2=NCCN12)c1cccnc1` [Example 1-124], for which the melting point was 302 to 303 °C. The IC50 in series [1] was 100 to 500 nM.

In the case of `Cl.O/C(=C\C1=Nc2ccc(O)cc2C2=NCCN12)c1cccnc1` [Example 1-125], the melting point was above 300 °C. Further, the IC50 in series [1] is below 100 nM.

`COc1ccc2c(c1)C1=NCCN1C(/C=C(\O)c1cccnc1)=N2` [Example 1-126] had a melting point of 199 °C. For the same compound, the IC50 in series [1] lay within 100 to 500 nM.

In turn, `Cl.NCC(=O)Oc1ccc2c(c1)C1=NCCN1C(/C=C(\O)c1cccnc1)=N2` [Example 1-128] showed a melting point above 300 °C. In addition, in series [1], the IC50 was below 100 nM.

As for `Cl.O/C(=C\C1=Nc2ccc(Br)cc2C2=NCCN12)c1cccnc1` [Example 1-129], the melting point is above 300 °C. In addition, in series [1], the IC50 fell in the range of 100 to 500 nM.

Turning to `Cc1ccc2c(c1)C1=NCCN1C(/C=C(\O)c1cccnc1)=N2` [Example 1-131], the melting point was determined as 212 °C. The IC50 in series [1] lay in the range of 100 to 500 nM.

Compound `CC(=O)Nc1ccc(/C(O)=C/C2=Nc3ccccc3C3=NCCN23)cc1` [Example 1-133] registered a melting point above 300 °C. The IC50 in series [1] is 100 to 500 nM.

`O/C(=C\C1=Nc2ccccc2C2=NCCN12)c1cccnc1` [Example 1-134]: the melting point was 202 °C. Also, the IC50 in series [1] was 100 to 500 nM.

In the case of `Cc1ccc(/C(O)=C/C2=Nc3ccccc3C3=NCCN23)cn1` [Example 1-136], the melting point lay within 217 to 219 °C. Also, the IC50 in series [1] fell in the range of 100 to 500 nM.

Turning to `CC(=O)Nc1ccc(/C(O)=C/C2=Nc3ccccc3C3=NCCN23)cn1.Cl` [Example 1-138], the melting point amounted to 327 °C. The IC50 in series [1] was below 100 nM.

Turning to `CNc1ccc(/C(O)=C/C2=Nc3ccccc3C3=NCCN23)cn1` [Example 1-139], the melting point fell in the range of 232 to 237 °C. For the same compound, the IC50 in series [1] is below 100 nM.

As to `CCCNc1ccc(/C(O)=C/C2=Nc3ccccc3C3=NCCN23)cn1` [Example 1-140], the melting point is 197 °C. Also, the IC50 in series [1] lay in the range of 100 to 500 nM.

The compound `O/C(=C\C1=Nc2ccccc2C2=NCCN12)c1cnccn1` [Example 1-141] showed a melting point of 233 to 235 °C. Moreover, the IC50 in series [1] lay in the range of 100 to 500 nM.

In turn, `O/C(=C\C1=Nc2ccccc2C2=NCCN12)c1ccco1` [Example 1-143] yielded a melting point of 192 °C. Also, the IC50 in series [1] was 100 to 500 nM.

Take `O/C(=C\C1=Nc2ccccc2C2=NCCN12)c1ccoc1` [Example 1-145]: the melting point is 155 to 156 °C. The IC50 in series [1] is 100 to 500 nM.

Compound `O/C(=C\C1=Nc2ccccc2C2=NCCN12)c1cccs1` [Example 1-146] came in with a melting point of 193 °C. For the same compound, the IC50 in series [1] was below 100 nM.

With `O/C(=C\C1=Nc2ccccc2C2=NCCN12)c1ccsc1` [Example 1-148], the melting point is 182 to 183 °C. Also, the IC50 in series [1] fell in the range of 100 to 500 nM.

`Cl.O/C(=C\C1=Nc2ccccc2C2=NCCN12)c1ccsc1` [Example 1-149] registered a melting point above 300 °C. For the same compound, the IC50 in series [1] was below 100 nM.

For `O/C(=C\C1=Nc2ccccc2C2=NCCN12)c1ccc[nH]1` [Example 1-150], the melting point was 247 °C. In series [1], the IC50 lay within 100 to 500 nM.

With `O/C(=C\C1=Nc2ccccc2C2=NCCN12)c1cc[nH]c1` [Example 1-151], the melting point was 247 to 249 °C. In addition, in series [1], the IC50 was below 100 nM.

As for `O/C(=C\C1=Nc2ccccc2C2=NCCN12)c1ccno1` [Example 1-152], the melting point was 148 °C. In addition, the IC50 in series [1] is 100 to 500 nM.

Compound `O/C(=C\C1=Nc2ccccc2C2=NCCN12)c1nccs1` [Example 1-154] gave a melting point of 208 to 210 °C. In series [1], the IC50 is below 100 nM.

On to `Cl.O/C(=C\C1=Nc2ccccc2C2=NCCN12)c1nccs1` [Example 1-155], for which the melting point is above 300 °C. Also, the IC50 in series [1] lay within 100 to 500 nM.

`Cc1nc(C)c(/C(O)=C/C2=Nc3ccccc3C3=NCCN23)s1` [Example 1-156]: the melting point is 222 °C. Also, the IC50 in series [1] was below 100 nM.

Values taken from patent publication US7511041B2, “Fused azole-pyrimidine derivatives” (Bayer Pharmaceuticals Corporation, priority 2002, dated 2009).
